From ChEMBL document CHEMBL3639344, “Fused heterocyclic compounds as orexin receptor modulators” (2014)

Assays:
[1] = target: T1, Orexin/Hypocretin receptor type 1 (Homo sapiens, UniProt O43613); assay: (§1) Radioligand Binding: Chinese ovary cells (CHO) stably expressing human orexin 1 receptor (Genebank accession number […]) were grown to confluency in DMEM/F12 (Gibco, Cat #11039), 10% FBS, 1× Pen/Strep, 600 μg/mL G418 media on 150 cm2 tissue culture plates, washed with 5 mM EDTA in PBS (HyClone Dulbecco's Phoshpate Buffered Saline 1× with Calcium and Magnesium, Cat #SH30264.01, hereafter referred to simply as PBS) and scraped into 50 ml tubes. After centrifugation (2K xG, 10 min at 4° C.), the supernatant was aspirated and the pellets frozen and stored at −80° C. Cells were resuspended in PBS in the presence of 1 tablet of protease inhibitor cocktail (Roche, Cat. #11836145001) per 50 mL.; type: cell-based
T1 sequence (O43613 whole entry): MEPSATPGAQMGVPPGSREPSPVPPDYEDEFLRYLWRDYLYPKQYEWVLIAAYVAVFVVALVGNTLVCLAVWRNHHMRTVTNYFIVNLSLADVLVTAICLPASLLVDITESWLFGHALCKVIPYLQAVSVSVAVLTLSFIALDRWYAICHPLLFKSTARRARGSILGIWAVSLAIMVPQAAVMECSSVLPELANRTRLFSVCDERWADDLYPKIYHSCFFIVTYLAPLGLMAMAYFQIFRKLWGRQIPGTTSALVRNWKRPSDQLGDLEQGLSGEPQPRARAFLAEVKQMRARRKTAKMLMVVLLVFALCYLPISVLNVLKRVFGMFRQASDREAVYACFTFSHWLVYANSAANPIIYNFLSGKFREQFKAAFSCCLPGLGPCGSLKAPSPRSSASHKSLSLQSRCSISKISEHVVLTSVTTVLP

[2] = target: T2, Orexin receptor type 2 (Homo sapiens, UniProt O43614); assay: as §1, with “HEK293” for “Chinese ovary cells (CHO)”, “orexin-2” for “orexin 1”, “#11039), in DMEM,” for “#11039),”, “Pen/Strep, 1× NaPyruvate, 1×HEPES,” for “Pen/Strep,”, “ug/ml” for “μg/mL”, “Phosphate” for “Phoshpate”
T2 sequence (O43614 whole entry): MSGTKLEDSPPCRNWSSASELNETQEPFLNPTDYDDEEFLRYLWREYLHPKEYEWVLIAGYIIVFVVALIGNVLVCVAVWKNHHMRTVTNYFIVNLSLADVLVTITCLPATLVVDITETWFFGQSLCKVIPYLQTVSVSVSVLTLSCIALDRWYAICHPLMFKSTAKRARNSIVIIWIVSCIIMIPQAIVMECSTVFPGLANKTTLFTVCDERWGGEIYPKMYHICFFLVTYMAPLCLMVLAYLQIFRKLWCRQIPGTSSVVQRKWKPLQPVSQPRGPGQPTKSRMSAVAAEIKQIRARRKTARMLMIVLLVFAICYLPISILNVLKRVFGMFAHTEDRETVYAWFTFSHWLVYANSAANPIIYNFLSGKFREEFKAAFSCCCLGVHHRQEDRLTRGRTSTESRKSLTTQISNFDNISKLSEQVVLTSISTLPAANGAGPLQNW

Ki [1]: 1590 nM | Ki [2]: 59 nM
SMILES: Cc1cc(C)nc(N2C[C@@H]3CCN(C(=O)c4ccccc4-c4nc(C)no4)C[C@@H]32)n1
